Reference: patent US20140128357A1, “METHODS OF PRODUCING AND USING BRASSINOSTEROIDS TO PROMOTE GROWTH, REPAIR AND MAINTENANCE OF SKELETAL MUSCLE AND SKIN” (Rutgers University, priority 2010, published 2014)
Where two headings read alike, the source gives them in different places.

Columns and labels:
[1] = system: orchiectomized (ORX) Wistar rats; experiment: 10-d Hershberger assay in ORX rats, subcutaneous HB (Protocol 4); type: in vivo, rat; settings: for increase in gastrocnemius muscle mass: subcutaneous
Protocol: Protocol 4: Four-week-old sham-operated (sham, n=6) or orchiectomized (ORX, n=24) Wistar rats (Charles River Laboratories, MA) were subject to a 10-d Hershberger assay (surgically castrated peri-pubertal adult model) under the following experimental conditions: sham, ORX (vehicle), ORX (0.4 mg/kg HB subcutaneously), ORX (4 mg/kg HB subcutaneously), and ORX (0.4 mg/kg testosterone propionate subcutaneously, serving as a positive control for the assay). All procedures and measurements followed protocol 1. […]

L6 rat myotubes = experiment: Protein degradation, release of acid-soluble [3H]-phenylalanine; type: cell-based; settings: for decrease in protein degradation vs control levels: 1 μM, 4 h
[2] = system: NIH 3T3 murine fibroblast cell line; experiment: Cytotoxicity, MTT assay in 3T3 fibroblasts; type: cell-based, mouse
Protocol: (§1) FIG. 9. Cell survival curves as measured by MTT assay for brassinosteroids 1-9 against the murine fibroblast cell line NIH-3T3. Cells were incubated with various concentrations of brassinosteroids (0.3-30 μM) for 24 h at 37° C. The mean absorbance of the control cells represented 100% cell proliferation, and the mean absorbance of treated cells was related to control values to determine sensitivity. Error bars represent standard error (n=6) from mean cell proliferation as determined by repeated experiments.
(§2) In various aspects, cell viability is measured and the effects of doses of compound and test reagents are tested in cell lines. In some aspects, cell viability was measured by the MTT (3-(4,5-Dimethylthiazol-2-yl)-2,5-diphenyltetrazolium bromide) assay in triplicate (Mosmann et al., J. Immunol. Methods 65:55-63, 1983) and quantified spectrophotometrically at 550 nm using a microplate reader (Molecular Devices, Sunnyvale, Calif.).
(§3) 3T3 fibroblasts were seeded in a 96-well flat bottom plate at a density of 1×10^4 cells/well. Cell viability was measured by an MTT (3-(4,5-Dimethylthiazol-2-yl)-2,5-diphenyltetrazolium bromide) assay in triplicate (0.3-30 μM of test substance for […]) essentially as described by Mosmann (J. Immunol. Methods 65, 55-63, 1983) and quantified spectrophotometrically at 550 nm using a microplate reader (Molecular Devices, Sunnyvale, Calif.). […] For cell proliferation studies, cells were treated in triplicate with 0.1-10 μM of test substance for 24 h and assayed using a BrdU (5-bromo-2′-deoxyuridine) kit from Amersham (Uppsala, Sweden).

[3] = system: AKT (Ser473) phosphorylation in L6 myotubes; experiment: AKT (Ser473) phosphorylation, Western blot; type: cell-based, rat; settings: for activation of AKT: after 1 h
Protocol: In some aspects, Western blot analyses were carried out. Fully differentiated L6 myotubes were cultured as described above, and whole cell extracts were prepared in ice-cold RIPA buffer supplemented with 10 mM sodium fluoride, 2 mM sodium orthovanadate, 1 mM PMSF, and protease inhibitor cocktail (Sigma) and centrifuged at 12,000 g for 20 min at 4° C. Equal amounts of protein (50 μg) from the supernatants were separated on 10% SDS polyacrylamide gels and blotted onto the nitrocellulose membrane. Western blot detection was carried out with monoclonal phospho-AKT (Ser473) antibodies according to the manufacturer's instructions (Cell Signaling Technology, Danvers, Mass.). After being washed, the blots were incubated with an anti-rabbit peroxidase-labeled secondary antibody and visualized using ECL Western Blotting Detection Reagent (GE Healthcare, Piscataway, N.J.). After being stripped, the same blots were probed with total AKT antibodies to serve as loading controls.

[4] = system: 3T3 Swiss fibroblast monolayers; experiment: Scratch wound closure in vitro; type: cell-based, mouse; settings: for Scratch wound closure at 5 μM, % of control: 12 h (Table 6); for Wound Closure (% over control): 10 μM, 12 h (Table 4)
Protocol: 3T3 fibroblasts were seeded into 24-well dishes at a concentration of 3×10^5 cells/ml and cultured to nearly confluent cell monolayers. On the day of the experiment, a linear wound was generated in the monolayer with a sterile 100 μl plastic pipette tip and any cellular debris was removed by washing cells once with sterile PBS. Fresh DMEM medium containing vehicle (0.1% ethanol), positive control (0.5% FBS), or various concentrations of the fractions, sub-fractions or pure compounds was added to a set of 3 wells per dose and incubated for 12 h at 37° C. with 5% CO2. Cells were then visualized with 20 μl of 10% methylene blue in PBS for 5 min. Three representative images of the scratched areas from each well were photographed at 0 and 12 h to estimate the scratch wound closure. Images were analyzed using ImageJ program (NIH, Bethesda, Md.) and % wound closure was calculated relative to vehicle control and was reported as wound closure % over control (Table 4). 3T3 Swiss fibroblast were seeded into 24-well tissue culture at a concentration of 3×10^5 cells/ml and cultured to nearly confluent cell monolayers. Then, a linear wound was generated in the monolayer with a sterile 100 μl plastic pipette tip. Any cellular debris was removed by washing with PBS. DMEM medium with vehicle (0.1% ethanol), FBS (1%, positive control), or various concentrations of brassinosteroids were added to a set of 3 wells per dose and incubated for 12 h at 37° C. with 5% CO2. Cells were visualized in 10% methylene blue for 5 minutes. Three representative images from each well of the scratched areas under each condition were photographed to estimate the relative migration of cells at 0 and 12 h post-treatment. Data were analyzed using ImageJ software available online from the National Institutes of Health (rsbweb.nih.gov/ij/) by calculating the percentage of scratch closure at each dose point relative to control.

[5] = Cytotoxicity, MTT assay in 3T3 fibroblasts; type: cell-based, mouse; settings: mouse
Protocol: as §1, §2, §3

[6] = 0.4 mg/kg subcutaneous daily 10 d
[7] = 4 mg/kg subcutaneous daily 10 d

CC[C@@H](C(C)C)[C@H](O)[C@@H](O)[C@@H](C)[C@H]1CC[C@H]2[C@@H]3COC(=O)[C@H]4C[C@H](O)[C@H](O)C[C@]4(C)[C@H]3CC[C@]12C [Compound 1, (22S,23S,24S)-2α,3α,22,23-tetrahydroxy-24 ethyl-β-homo-7-oxo-5α-cholestane-6-one]
Bulbocavernosus/levator ani weight [1, 6]: 131.3 ± 7.1 mg
Cowper's gland weight [1, 6]: 11.3 ± 0.5 mg
Glans penis weight [1, 6]: 50.7 ± 1.9 mg
Seminal vesicles weight [1, 6]: 29.0 ± 3.1 mg
Ventral prostate weight [1, 6]: 18.3 ± 1.2 mg
Bulbocavernosus/levator ani weight [1, 7]: 147.5 ± 6.9 mg
Cowper's gland weight [1, 7]: 10.5 ± 0.3 mg
Glans penis weight [1, 7]: 56.3 ± 3.3 mg
Seminal vesicles weight [1, 7]: 30.2 ± 1.2 mg
Ventral prostate weight [1, 7]: 23.2 ± 1.2 mg
increase in gastrocnemius muscle mass ([1]; one-fold dose of positive control (0.4 mg/kg)): 2.8%
increase in gastrocnemius muscle mass ([1]; ten-fold dose of positive control (4 mg/kg)): 9.1%
decrease in protein degradation vs control levels (L6 rat myotubes): 8.2±0.6%
time at which suppression of protein degradation reached a plateau (L6 rat myotubes; 3 μM HB, 1-4 h study): 3 h
IC50 ([2]; 3T3 mouse fibroblasts, MTT, 0.3-30 μM, read-out: Cell cytotoxicity, IC50): > 30 µM
cytotoxicity in vitro ([2]; tested up to 30 μM): no cytotoxicity
time to AKT phosphorylation [3]: 30 min
stimulation of Ser473 phosphorylation of AKT ([3]; 3 μM, 1 h): up to 3 fold
activation of AKT [3]: significant activation of AKT
Scratch wound closure at 5 μM, % of control [4]: 30 ± 4.2 %
Scratch wound closure at 5 μM, % of control ([4]; listed as HB): 30±4.2%
Wound Closure (% over control) [4]: 30.2 ± 11.2 %

CC[C@@H](C(C)C)[C@H](O)[C@@H](O)[C@@H](C)[C@H]1CC[C@H]2[C@@H]3CC(=O)[C@H]4C[C@H](O)[C@H](O)C[C@]4(C)[C@H]3CC[C@]12C [Compound 2, (22S,23S,24S)-2α,3α, 22,23-tetrahydroxy-24-ethyl-5α-cholestan-6-one]
decrease in protein degradation vs control levels (L6 rat myotubes): 8.7±1.7%
concentration at which inhibition of protein degradation reached a plateau (L6 rat myotubes; 4 h dose response): 10 µM
IC50 [5]: > 30 µM
activation of AKT [3]: significant activation of AKT
Scratch wound closure at 5 μM, % of control [4]: 32.9 ± 4.1 %
Wound Closure (% over control) [4]: 32.9 ± 14.1 %

CC[C@@H](C(C)C)[C@H](O)[C@@H](O)[C@@H](C)[C@H]1CC[C@H]2[C@@H]3CC(=O)N[C@H]4C[C@H](O)[C@H](O)C[C@]4(C)[C@H]3CC[C@]12C [Compound 5, (22S,23S,24S)-2α,3α-22,23-tetrahydroxy-24-ethyl-B-homo-6-aza-5α-cholestan-7-one]
IC50 [2]: 12.5 µM
IC50 ([2]; 3T3/NIH murine fibroblasts, MTT, 24 h (FIG. 9), read-out: half-maximal inhibitory concentration (IC50), cell proliferation): 12.5 µM
Scratch wound closure at 5 μM, % of control [4]: 13.0 ± 0.7%
fibroblast migration activity in words ([4]; 0.1-10 μM, 12 h): no effect on fibroblast migration
